Literature values in patent US7342124B2, “Synthetic techniques and intermediates for polyhydroxy dienyl lactones and mimics thereof” (The Trustees Of The University Of Pennsylvania, priority 2003, dated 2008).

Columns and labels:
[1] = tested on: graft-vs.-host splenomegaly response; settings: induced by injection of parental splenocytes into F1 recipient mice
murine splenocytes = settings: in vitro
[2] = tested on: mitotic spindle microtubules; settings: compared with taxol
[3] = tested on: cell development (M phase); settings: by binding and stabilizing mitotic spindle microtubules
[4] = tested on: two-way mixed-lymphocyte reaction; settings: in vitro

Compound: C=C/C=C\[C@H](C)[C@H](OC(N)=O)[C@@H](C)[C@H](O)[C@@H](C)C/C(C)=C\[C@H](C)[C@@H](O)[C@@H](C)/C=C\[C@@H](O)C[C@@H]1OC(=O)[C@H](C)[C@@H](O)[C@H]1C [(+)-discodermolide]
- suppression of graft-vs.-host splenomegaly response, relative potency [1]: potency intermediate between those of cyclosporin A and FK506
- associated cytotoxicity (murine splenocytes; at suppression of mixed-lymphocyte reaction and concanavalin A-induced mitogenesis): no associated cytotoxicity
- suppression of concanavalin A-induced mitogenesis (murine splenocytes; murine splenocytes): suppresses
- microtubule binding affinity relative to taxol [2]: much higher
- cell cycle arrest [3]: arrests cell development at the M phase
- suppression of two-way mixed-lymphocyte reaction [4]: suppresses
